Assay results: PMC5421785, “Citrullination only infrequently impacts peptide binding to HLA class II MHC” (PLoS ONE, 2017)
Like-named read-outs stand apart in the source and are kept apart here. Square brackets hold non-standard residues; d marks the D form. Ends that are not written are not given here. Peptide text beside a SMILES is read from it. Cit = NC(=O)NCCC[C@H](N)C(=O)O

How the values were obtained:
HLA-DRB1*01:01 = biological target: T1, HLA-DRB1*01:01 (Homo sapiens, UniProt P01903+P01911, A100R/D57E/F55L/F60I/F76Y/I96L/L162R/M171V/P40L/Q125E/R42F/V115G/Y59C); experiment: HLA class II peptide binding, inhibition of radiolabeled peptide binding to purified MHC
T1 construct: EBV transformed homozygous cell lines were used as sources of MHC molecules; endogenous in cells; host or cells: EBV transformed homozygous cell lines

HLA-DRB1*04:01 = biological target: T2, HLA-DRB1*04:01 (Homo sapiens, UniProt P01903+P01911, A100K/A169T/F76Y/I96L/K127E/L162R/M171V/N62H/P40V/Q125Y/R42H/S133A/S149N/S66Y/V115G/V209L/W38E); experiment: as above
T2 construct: EBV transformed homozygous cell lines were used as sources of MHC molecules; endogenous in cells; host or cells: EBV transformed homozygous cell lines

[1] = wild-type (unmodified Arg) 15-mer peptide, purified HLA-DRB1*01:01, read-out: DRB1*01:01 binding capacity, WT peptide (IC50 nM)
[2] = wild-type (unmodified Arg) 15-mer peptide, purified HLA-DRB1*04:01, read-out: DRB1*04:01 binding capacity, WT peptide (IC50 nM)
[3] = citrullinated 15-mer (X), purified MHC, inhibition of radiolabeled peptide binding, dash = IC50 >40,000 nM, read-out: DRB1*01:01 binding capacity, Cit peptide (IC50 nM)
[4] = citrullinated 15-mer (X), purified MHC, inhibition of radiolabeled peptide binding, dash = IC50 >40,000 nM, read-out: DRB1*04:01 binding capacity, Cit peptide (IC50 nM)
[5] = citrullinated 15-mer peptide (X = citrulline), purified HLA-DRB1*01:01, read-out: DRB1*01:01 binding capacity, Cit peptide (IC50 nM)
[6] = ratio of WT IC50 to Cit IC50, >1 = citrullination increases binding
[7] = citrullinated 15-mer peptide (X = citrulline), purified HLA-DRB1*04:01, read-out: DRB1*04:01 binding capacity, Cit peptide (IC50 nM)

Row | IC50 (HLA-DRB1*01:01; [1]) [nM] | IC50 (HLA-DRB1*04:01; [2]) [nM] | IC50 (HLA-DRB1*01:01; [3]) [nM] | IC50 (HLA-DRB1*04:01; [4]) [nM] | Compound | other results
1 |  |  | 7.8 | 6590 | CC[C@H](C)[C@H](NC(=O)[C@H](CCCCN)NC(=O)[C@H](CC(N)=O)NC(=O)[C@H](CCC(N)=O)NC(=O)[C@H](CCC(N)=O)NC(=O)[C@H](CCC(=O)O)NC(=O)[C@H](CC(C)C)NC(=O)[C@H](Cc1ccccc1)NC(=O)[C@H](CCCNC(N)=O)NC(=O)[C@@H](N)C(C)C)C(=O)N[C@@H](CC(C)C)C(=O)N[C@@H](CC(C)C)C(=O)N[C@@H](C)C(=O)N[C@@H](CCC(=O)O)C(=O)N[C@@H](CC(C)C)C(=O)O [VXFLEQQNKILLAEL] | 
2 |  |  | 9.6 | 847 | CC(C)C[C@H](NC(=O)[C@H](C)NC(=O)[C@H](CO)NC(=O)CNC(=O)[C@H](CC(C)C)NC(=O)[C@H](CO)NC(=O)[C@H](Cc1ccc(O)cc1)NC(=O)[C@@H](NC(=O)[C@H](CCCNC(=N)N)NC(=O)[C@@H](NC(=O)[C@H](CO)NC(=O)[C@@H](NC(=O)[C@@H](NC(=O)[C@@H](N)C(C)C)[C@@H](C)O)[C@@H](C)O)[C@@H](C)O)[C@@H](C)O)C(=O)N[C@@H](CCCNC(N)=O)C(=O)O [VTTSTRTYSLGSALX] (H-VTTSTRTYSLGSAL[Cit]-OH) | 
3 |  |  | 20400 | > 40000 | CC(C)C[C@H](NC(=O)[C@H](CCC(N)=O)NC(=O)[C@H](CC(=O)O)NC(=O)[C@@H](N)C(C)C)C(=O)N[C@H](C(=O)N[C@@H](CC(N)=O)C(=O)N[C@@H](CC(=O)O)C(=O)N[C@@H](CCCCN)C(=O)N[C@@H](C)C(=O)N[C@@H](CCCNC(N)=O)C(=O)N[C@H](C(=O)N[C@@H](CCC(=O)O)C(=O)N[C@H](C(=O)N[C@@H](CCC(=O)O)C(=O)N[C@@H](CCCNC(=N)N)C(=O)O)C(C)C)C(C)C)[C@@H](C)O [VDQLTNDKAXVEVER] (H-VDQLTNDKA[Cit]VEVER-OH) | 

Second part, the compound before the results:

Row | Compound | IC50 (HLA-DRB1*01:01; [1]) [nM] | IC50 (HLA-DRB1*04:01; [2]) [nM] | IC50 (HLA-DRB1*01:01; [3]) [nM] | IC50 (HLA-DRB1*04:01; [4]) [nM] | other results
4 | EEEMRELRRQVDQLT [Vimentin 151 WT] |  |  |  |  | IC50 (HLA-DRB1*01:01; read-out: DRB1*01:01 binding capacity, WT peptide (IC50 nM)): 468 nM; IC50 (HLA-DRB1*04:01; read-out: DRB1*04:01 binding capacity, WT peptide (IC50 nM)): 4350 nM
5 | CC[C@H](C)[C@H](NC(=O)[C@H](CCC(=O)O)NC(=O)[C@@H](NC(=O)[C@H](CC(=O)O)NC(=O)[C@H](CC(N)=O)NC(=O)[C@@H](N)CO)C(C)C)C(=O)N[C@@H](CCCNC(N)=O)C(=O)N[C@@H](C)C(=O)N[C@@H](CCC(=O)O)C(=O)NCC(=O)N[C@@H](CC(N)=O)C(=O)N[C@@H](CO)C(=O)N[C@@H](CCCNC(=N)N)C(=O)N[C@@H](Cc1ccccc1)C(=O)N[C@H](C(=O)O)[C@@H](C)O [SNDVEIXAEGNSRFT] (H-SNDVEI[Cit]AEGNSRFT-OH) |  |  |  |  | IC50 (HLA-DRB1*01:01; citrullinated peptide as listed (X at Cit position), read-out: DRB1*01:01 binding capacity Cit peptide (IC50 nM)): 1520 nM; IC50 (HLA-DRB1*04:01; citrullinated peptide as listed (X at Cit position), read-out: DRB1*04:01 binding capacity Cit peptide (IC50 nM)): 929 nM
6 | GPRGERGFPGERGSP [Collagen 696 WT] | 11200 | > 40000 |  |  | 
7 | GAEGPPGPQGLAGQR [Collagen 966 WT] | > 40000 | > 40000 |  |  | 
8 | CC(C)C[C@H](NC(=O)CNC(=O)[C@H](CCC(N)=O)NC(=O)[C@@H]1CCCN1C(=O)CNC(=O)[C@@H]1CCCN1C(=O)[C@@H]1CCCN1C(=O)CNC(=O)[C@H](CCC(=O)O)NC(=O)[C@H](C)NC(=O)CN)C(=O)N[C@@H](C)C(=O)NCC(=O)N[C@@H](CCC(N)=O)C(=O)N[C@@H](CCCNC(N)=O)C(=O)O [GAEGPPGPQGLAGQX] (H-GAEGPPGPQGLAGQ[Cit]-OH; N-terminus and C-terminus assumed) |  |  |  |  | IC50 (HLA-DRB1*01:01; [5]): > 40000 nM; DRB1*01:01 binding capacity, WT/cit ratio (HLA-DRB1*01:01; [6]): 1.0; IC50 (HLA-DRB1*04:01; [7]): > 40000 nM; DRB1*04:01 binding capacity, WT/cit ratio (HLA-DRB1*04:01; [6]): 1.0
9 | CC[C@H](C)[C@H](NC(=O)[C@H](CC(C)C)NC(=O)[C@H](CC(C)C)NC(=O)[C@@H](NC(=O)[C@H](CCCNC(N)=O)NC(=O)[C@H](CCCCN)NC(=O)[C@H](CO)NC(=O)[C@H](Cc1c[nH]cn1)NC(=O)[C@@H](N)[C@@H](C)O)[C@@H](C)O)C(=O)N[C@@H](CCCCN)C(=O)N[C@H](C(=O)N[C@H](C(=O)N[C@@H](CCC(=O)O)C(=O)N[C@H](C(=O)N[C@@H](CCCNC(=N)N)C(=O)O)[C@@H](C)O)C(C)C)[C@@H](C)O [THSKXTLLIKTVETR] (H-THSK[Cit]TLLIKTVETR-OH) |  |  |  |  | IC50 (HLA-DRB1*01:01; [5]): 176 nM; IC50 (HLA-DRB1*04:01; [7]): 6430 nM
10 | SAFAGLGPREKGPDP [Collagen 1221 WT] | 50 | > 40000 |  |  | 
